Read-outs that look alike come from different tables or passages of the source. Values belong to the compound of their own block, whether it stands above or below them.
Key:
[1] = biological target: LC3B (Homo sapiens, UniProt Q9GZQ8); assay: MST detection of affinity activity with LC3B; type: binding; design: His8 (with TEV site) (N); made in house; host or cells: Escherichia coli BL21(DE3)pLysS
Protocol: The recombinant GST-LC3B proteins were prepared and purified, dialyzed into 1×PBS, and then labelled with the red fluorophore with the protein labeling kit RED-NHS (Nanotemper, cat. no. L001).
The MST experiments were performed using the Monolith NT.115 instrument (NanoTemper Technologies). The reaction buffer contains 20 mM HEPES, pH 7.4, 150 mM NaCl, and the protein concentration was 500 nM. The MST data were collected under 40% infrared laser power and 20% light-emitting diode power. The data were analyzed by Nanotemper software.

[2] = system: lipid droplets in human normal liver cell line QSG7701; assay: Endogenous lipid droplets in human normal liver cell line QSG7701; type: cell-based; conditions: QSG7701, no induction, 5 μM, 24 h
Protocol: 10% FBS+90% RPMI 1640 culture medium was used for cultivation, cell incubator culture condition of 37° C. and 5% CO2 was used. Cells were plated as 50 thousands/well (12 well plate was plated with aseptic treated slides). When cells grew to a confluence of 80-90%, the compound (Compound 1A or Compound 2A, at a concentration of 5 μM) was added for treatment, and LC3 binding Compound A1, A5, lipid droplet probe Sudan IV as well as DMSO acted as a control. […]. In the compounds of present disclosure, LC3 binding moiety was covalently linked with lipid droplet binding moiety, and thus could achieve the effect of reducing liver cell endogenous lipid droplet.

[3] = system: lipid droplets in SH-SY5Y cells; assay: Reduction of OA-induced lipid droplets in SH-SY5Y cells; type: cell-based, human; conditions: unconjugated compound 5 μM
Description: The reduction of lipid droplets in SH-SY5Y cells by Compound 1A and Compound 2A was detected by a method that was similar to Example 2, and the result was shown in FIG. 18.
The effects of unconjugated LC3 binding Compound A1, A5 and unconjugated lipid droplet probe ORBB […] respectively on lipid droplets in SH-SY5Y cells (FIG. 20A) and MEF cells (FIG. 20B) were detected by a method similar to Example 2.

[4] = system: lipid droplets in wild type MEF cells; assay: Reduction of OA-induced lipid droplets in wild type MEF cells (BODIPY 493/503 staining); type: cell-based, mouse; conditions: MEF, unconjugated compound 5 μM
Protocol: (5) OA-BSA stock solution was prepared into OA-BSA working solution (50× final concentration, 200 μM), and 40 μl of OA-BSA working solution was added to each well to induce lipid droplets. For the non-OA induction group, 40 μl of 10% BSA solution was added to the control well, and the amount of BSA was the same as that of the experimental group.
Compounds were formulated into DMSO stock solutions. Stock compounds were diluted with DMSO into the indicated concentrations of working solutions prior to use in the treatment of cells. After induction of the lipid droplets with OA for the indicated time, the test compounds were added to the cells respectively. Control wells were replaced with the equal volume of DMSO. Unless otherwise stated, the compounds were diluted into 10× solutions using the culture medium and added to the culture medium for 24 hours of incubation. Cells were treated with compounds in a 37° C. incubator with 5% CO2.
(3) The original medium in the multi-well plates was removed, washed and the cells was fixed, 1 ml of the BODIPY solution prepared in (1) was added to each well, and stained for 15 minutes. The staining solution was aspirated and washed with 1×PBS.
(5) The coverslips laid in the multi-well plates were removed, and imaged with the Zeiss 880 confocal microscope after mounted, and analyzed the size and number of lipid droplets with ImageJ.
Wild type MEF cells were cultured in a DMEM culture medium containing 10% FBS. Cells were plated according to the method as described above (12 well plate was plated with aseptic treated slides). When cells grew to a confluence of 60-70%, lipid droplets were induced with OA for 30 h according to the method as described above.
At the time point of 6th hour after initiation of induction, the cells were treated (treated for 24 hours) with Compound 1A or Compound 2A (compound concentrations were 50 μM, 15.8 μM, 5 μM, 1.58 μM, 0.5 μM, 0.158 μM) according to the method as described above.

[5] = system: db/db mice; assay: Effect of the compound on db/db mouse; type: in vivo
Description: Experimental animals: nineteen-week-old db/db male mice (C57BL/6J-Lepr^db/Lepr^db) were obtained from Shanghai Model Organisms Co., Ltd., and acclimatized for at least 1 week before experiments. The mice had ad libitum access to standard chow and water.
Normal control: The C57BL/6 male mice fed on standard irradiated chow diet (Shuyishuer Inc. cat. no. D12450J) from Changzhou Shuyishuer Biotechnology Co., Ltd. (Shuyishuer Inc.) were used as the normal control.
Mice were randomly divided into 7 groups, wherein 8 mice in each group, and the mice in each group were subjected to intraperitoneal injection to administer: (1) only vehicle (no DMSO) group: 0% DMSO+39% PEG300 (Selleck, cat. no. S6704)+5% Tween-80 (Selleck, cat. no. S6702)+56% distilled water, (2) DMSO group: 1% DMSO+39% PEG300+5% Tween-80+55% H2O (DMSO vehicle), (3) C3 group: Compound 3A was in DMSO vehicle, (4) C4 group: Compound 4A in DMSO vehicle, (5) SIII group: Sudan III DMSO vehicle, (6) GW5074 group: Compound A1 in DMSO vehicle, (7) DP group: Compound A5 in DMSO vehicle. For groups (3)-(7), the compound (30 mg/kg, administration volume 150 μL) was administered through intraperitoneally injection for consecutive 2 weeks, and once a day. The food and water intake were measured with an analytical electronic balance.
Bodyweight was weighed every day.
If time permitted, tail vein blood (30-50 μL) was collected every 1-3 days.
24 hours after the time point of the last injection, end point maxillary surface blood sampling was performed on each mouse. All mice were Euthanized by cervical dislocation, and then tissue sample (e.g., liver samples) were obtained and stored in Eppendorf tubes at −80° C. for assay.
12 days after initiation of administration, each mouse was scanned by a minispec nuclear magnetic resonance (NMR) instrument (Bruker LF50 II “Minispec” body composition analyzer, Bruker Optics) that was designed for experimental animals, and based on the measurement of solid and liquid parts of the samples, the body fat and lean body weight were determined by this device.
Serum: Tail vein blood samples (30-50 μL) were left to coagulate in […] blood collection tubes (Jiangsu Kangjian Medical Products Co., Ltd., model KJ002) at room temperature without interference, and then centrifuged at 2,000×g for 10 minutes at 4° C. to remove the clot. Supernatant was collected to obtain the serum.
Liver: Liver samples were obtained as described in (2). 100 mg of liver tissue was homogenized in 0.9 mL of absolute alcohol under ice-cold conditions, and then centrifuged (2,500 r.p.m/min, 10 min). Supernatant was collected, and then stored at −80° C.
The kits were used according to the instruction from manufacturer (TAG: TG kit, cat. no. A110-1-1; TC: T-CHO kit, cat. no. A111-1. FFA: NEFA kit, cat. No. A042-2-1; they were all from Nanjing Jiancheng Bioengineering Institute). TAG, TC and FFA levels in serum and liver samples were determined.
According to the lipidomic method as described above, the contents of liver total lipid, glycerolipid, sterol lipid, neutral sphingolipid and polar lipid were analyzed. The log 2-fold change (log2 FC) and statistical significance (p-value) relative to the DMSO group were calculated.

[6] = system: lipid droplets in 3T3-L1 fat precursor cell differentiated fat cells; assay: Lipid droplets in 3T3-L1 fat precursor cell differentiated fat cells; type: cell-based, mouse; conditions: 3T3-L1 differentiated fat cells, 5 μM, 24 h
[7] = system: autophagosome-lipid droplet colocalization in MEF cells; assay: Colocalization of autophagosome and lipid droplets in mCherry-LC3B transfected MEF cells; type: cell-based, mouse; conditions: 5 μM, 3 h, compared to DMSO control
Protocol: (1) In MEF cells, mCherry-LC3B was expressed by cDNA plasmid transfection.
(2) OA was added to the culture medium 30 hours after transfection to induce lipid droplets.
(3) Compounds were added to treat cells 6 hours after induction.
(4) 3 hours after compounds addition, cells were fixed and BODIPY stained.
(5) The coverslips laid in the multi-well plates were removed, and imaged with the Zeiss 880 confocal microscope after mounted to observe the aggregation of LC3 puncta around the lipid droplets.
In MEF cells, mCherry-LC3B was expressed by cDNA plasmid transfection. At 30th hour of overexpression, OA was added into cells for lipid droplet induction. 6 hours later, the compound was added for 3 hours' treatment, and then cells were subjected to immunostaining. […] Lipid droplets (green) were stained with BODIPY stain, and nucleus were indicated with DAPI stain. […] In FIG. 24, the colocalized autophagosome-lipid droplet was marked with circles.

[8] = MST, read-out: Kd, equilibrium dissociation constant between the LC3 binding compound and LC3B

Kd [1, 8]: 3 µM
Structure (SMILES): O=C(O)c1cc2ccc(O)cc2oc1=O [Compound A4]

Structure (SMILES): O=c1cc(-c2ccccc2)c2c(O)cc(O)cc2o1 [Compound A5, 5,7-dihydroxy-4-phenyl-2H-coumarin, reference compound]
endogenous lipid droplets (amount) [2]: no significant effect
lipid droplets (number and size) [3]: did not significantly decrease or become smaller
lipid droplets (number and size) [4]: did not significantly decrease or become smaller
mice died in the experiment ([5]; 30 mg/kg ip, 8 mice per group): one mouse
amount/size of lipid droplets [6]: no significant effect

Kd [1, 8]: 0.672 µM
Structure (SMILES): COc1ccc(-c2cc(=O)oc3c(C)c(O)c(CN(C)C)cc23)cc1 [Compound A7]

Structure (SMILES): Cc1ccc(C(=O)N(CCCN)[C@@H](c2nc3cc(Cl)ccc3c(=O)n2Cc2ccccc2)C(C)C)cc1 [Compound A8, ispinesib]
Kd [1]: 0.462 ± 0.11 µM

Kd [1, 8]: 3.98 ± 0.537 µM
Structure (SMILES): Nc1ncnc2c1c(-c1cccc(OCc3ccccc3)c1)cn2C1CC(CN2CCCC2)C1 (centres unmarked) [Compound A10]

Kd [1, 8]: 2.78 ± 0.577 µM
Structure (SMILES): COCC(=O)NC/C=C/c1ccc2ncnc(Nc3ccc(Oc4ccc(C)cc4)c(C)c3)c2c1 [Compound A11]

Kd [1, 8]: 21.3 ± 1.69 µM
Structure (SMILES): CC(C)(C)c1cc(NC(=O)Nc2ccc(-c3cn4c(n3)sc3cc(OCCN5CCOCC5)ccc34)cc2)no1 [Compound A12]

Kd [1, 8]: 5.19 ± 0.282 µM
Structure (SMILES): Cc1csc(-c2nnc(Nc3ccc(Oc4ncccc4-c4ccnc(N)n4)cc3)c3ccccc23)c1 [Compound A13]

Structure (SMILES): OCCCCCCCCCCBr [Linker, 10-bromo-1-decanol, reference compound]
amount/size of lipid droplets [6]: no significant effect

interaction with LC3B ([1]; MST): No interaction
Structure (SMILES): Oc1ccc2ccccc2c1/N=N/c1ccc(/N=N/c2ccccc2)cc1 [Sudan III, reference compound]
TAG in liver ([5]; lipidomics): not reduced
other major neutral lipids, cholesteryl ester (ChE) and diglyceride (DG) in liver ([5]; lipidomics): not reduced
amount/size of lipid droplets [6]: no significant effect

interaction with LC3B ([1]; MST): No interaction
Structure (SMILES): Cc1ccccc1/N=N/c1ccc(/N=N/c2c(O)ccc3ccccc23)c(C)c1 [Sudan IV, reference compound]
ratio of colocalization of red and green aggregation point (autophagosome-lipid droplet) [7]: No such effect
endogenous lipid droplets (amount) [2]: no significant effect
lipid droplets (number and size) [3]: did not significantly decrease or become smaller
lipid droplets (number and size) [4]: did not significantly decrease or become smaller
amount/size of lipid droplets [6]: no significant effect

— US12582720B2, “Compound for preventing or treating lipid metabolism-related diseases” (Fudan University, priority 2020, dated 2026)
